What was measured:
[1] = tested on: hair follicles of female CD-1 mice; assay: Histological analysis of skin to determine the phase of the hair cycle; format: in vivo, mouse
Description: Female CD-1 mice, 4, 5, or 9 weeks of age, were purchased from Charles River Laboratories, Raleigh, N.C. Mice were kept in an animal facility at least 1 week prior to use and were fed rodent chow (Agway Food, Granville Milling and Co., Creedmoor, N.C.) and water ad libitum. The mice were kept on corn cob bedding and placed on a 12 hour light/dark cycle. Female CD-1 mice were clipped on the dorsal region (approximately 4×2.5 cm area) with electric clippers. The mice were then treated twice weekly on the clipped dorsal surface with either (a) 10 nmol 17-β-estradiol in 200 μl acetone or (b) acetone alone. For the studies with the estrogen receptor antagonist, ICI 182,780 was dissolved in acetone and 200 μl was topically applied twice weekly. […] To determine the effect of 17-β-estradiol on the hair follicle cycle, mice were treated with 17-β-estradiol or acetone alone twice weekly from the 4th week of age to the 15th week of age. Every week, histological analysis of the skin from 3 mice from each group was conducted to determine the phase of the hair cycle. Representative skin histology sections from acetone- and 17-β-estradiol-treated mice at 7, 9, and 11 weeks of age are shown in FIGS. 6A-6F. As expected, at 7 weeks of age all follicles were in telogen in both the 17-β-estradiol and the acetone-treated mice.

[2] = tested on: hair growth on clipped dorsal skin of female CD-1 mice; assay: Hair regrowth on clipped dorsal skin of mice after twice-weekly topical treatment; format: in vivo, mouse; details: for effect on hair growth (figure legend): 10 nmol in 200 μL acetone applied topically to clipped hair area, mice; for mice demonstrating partial patchy hair regrowth: 10 nmol topically twice weekly from 6th week; for hair growth in pre-existing anagen follicles: 10 week old mice in anagen phase, twice weekly topical
Description: Female CD-1 mice, 4, 5, or 9 weeks of age, were purchased from Charles River Laboratories, Raleigh, N.C. Mice were kept in an animal facility at least 1 week prior to use and were fed rodent chow (Agway Food, Granville Milling and Co., Creedmoor, N.C.) and water ad libitum. The mice were kept on corn cob bedding and placed on a 12 hour light/dark cycle. Female CD-1 mice were clipped on the dorsal region (approximately 4×2.5 cm area) with electric clippers. The mice were then treated twice weekly on the clipped dorsal surface with either (a) 10 nmol 17-β-estradiol in 200 μl acetone or (b) acetone alone. For the studies with the estrogen receptor antagonist, ICI 182,780 was dissolved in acetone and 200 μl was topically applied twice weekly. Mice were treated with the estrogen receptor antagonist ICI 182,780 as provided in Example 1. Twice-weekly treatment of clipped dorsal skin was begun when the mice were 6 weeks of age, with either (a) 10 nmol ICI 182,780 in acetone or (b) acetone alone. […] In order to determine if 17-β-estradiol could influence hair growth, six week old CD-1 female mice were clipped on the dorsal surface with electric clippers and then treated twice weekly from the 6th week of age to the 16th week of age with topical applications of either (a) 10 nmol 17-β-estradiol or (b) acetone vehicle alone. […] In order to determine if 17-β-estradiol could block hair growth in pre-existing anagen follicles, 10 week old mice in the anagen phase of the hair cycle were treated twice weekly with 17-β-estradiol applied topically to clipped dorsal skin.

Row | SMILES | hair follicle phase ([1]; 17-β-estradiol twice weekly from 4th week of age, 15 weeks of age, termination of experiment) | hair follicle phase ([1]; 17-β-estradiol twice weekly from 4th week of age, at 7 weeks of age, acetone mice also in telogen) | hair follicle phase ([1]; 17-β-estradiol twice weekly from 4th week of age, by 9 weeks of age, acetone mice entered anagen) | hair follicle phase ([1]; 17-β-estradiol twice weekly from 4th week of age, by 11 weeks of age, acetone mice in mid to late anagen) | effect on hair growth (figure legend) [2] | effect on dorsal hair regrowth ([2]; 10 nmol topically twice weekly from 6th to 16th week of age) | full hair regrowth ([2]; 10 nmol topically twice weekly from 6th to 16th week of age, by 16 weeks of age, 100% of acetone mice regrown by 13 weeks) | partial patchy hair regrowth, share of total clipped area ([2]; 10 nmol topically twice weekly from 6th to 16th week of age, some of the treated mice) | mice demonstrating partial patchy hair regrowth ([2]; at 12 weeks of age) [%] | mice demonstrating partial patchy hair regrowth ([2]; by 15 weeks) [%] | hair growth in pre-existing anagen follicles ([2]; treatment continued for 10 weeks) | hair growth in pre-existing anagen follicles ([2]; within two weeks, all acetone mice developed full coat) | hair follicle phase ([1]; 10 nmol ICI 182,780 twice weekly from 6 weeks, at 7 weeks of age, acetone mice in second telogen) | hair follicle phase ([1]; 10 nmol ICI 182,780 twice weekly from 6 weeks, at eleven weeks of age, control mice in mid to late anagen) | hair follicle phase ([1]; 10 nmol ICI 182,780 twice weekly from 6 weeks, by eight weeks of age, acetone mice in telogen) | effect on duration of anagen ([1]; conclusion from histology at eleven weeks of age) | mice demonstrating full hair regrowth ([2]; 10 nmol in acetone topically twice weekly from 6 weeks of age, by 9 weeks of age, no hair growth in acetone-treated mice) [%] | mice that developed a full coat of hair ([2]; 10 nmol in acetone topically twice weekly from 6 weeks of age, by 10 weeks of age, 40% of acetone-treated mice)
1 | C[C@]12CC[C@@H]3c4ccc(O)cc4CC[C@H]3[C@@H]1CC[C@@H]2O [17-β-estradiol] | still arrested in telogen | telogen | remained in telogen | remained in telogen | blocks hair regrowth | potent inhibitory effect | did not demonstrate any full hair regrowth | less than 10% | 20 | 40 | no hair growth was apparent | no longer growing hair |  |  |  |  |  | 
2 | C[C@]12CC[C@@H]3c4ccc(O)cc4C[C@@H](CCCCCCCCC[S+]([O-])CCCC(F)(F)C(F)(F)F)[C@H]3[C@@H]1CC[C@@H]2O (stereo partly drawn) [ICI 182,780, 7α-[9-(4,4,5,5,5,-pentafluoropentylsulfinyl)nonyl]estra-1,3,5(10)-triene-3,17β-diol] |  |  |  |  | causes hair growth during the second telogen phase |  |  |  |  |  |  |  | early to mid anagen | entered telogen | mid to late anagen | does not prolong anagen | 60 | all
